Results reported in the CheMixHub ionic liquid set.
± gives the uncertainty stated by the source.

Assay: xn = mol fraction of the nth substance listed

COC[n+]1ccccc1.O=S(=O)([N-]S(=O)(=O)C(F)(F)F)C(F)(F)F + O
101 kPa, x1 = 0.8483
Conditions	electrical conductivity [S/m]	viscosity [mPa·s]
298.1 K	–	37.4 ± 0.9
298.15 K	0.608	–
303 K	–	30.6 ± 0.7
333 K	–	12 ± 0.3

CCCC[n+]1ccn(C)c1.F[P-](F)(F)(F)(F)F + O=C1CCCC1
Conditions	viscosity [mPa·s]
298.15 K, 101.3 kPa, x2 = 0	270 ± 34

CCCC[n+]1ccn(C)c1.O=S(=O)([N-]S(=O)(=O)C(F)(F)F)C(F)(F)F + O=C1CCCCCO1
100 kPa, frequency 0.01 MHz, x1 = 1
Conditions	electrical conductivity [S/m]
293.15 K	0.337 ± 0.013
298.15 K	0.4 ± 0.016
303.15 K	0.472 ± 0.019
308.15 K	0.552 ± 0.022
313.15 K	0.64 ± 0.026
318.15 K	0.733 ± 0.029
323.15 K	0.835 ± 0.033

CCCC[n+]1ccn(C)c1.O=S(=O)([N-]S(=O)(=O)C(F)(F)F)C(F)(F)F + O=C1CCCCO1
100 kPa, frequency 0.01 MHz, x1 = 1
Conditions	electrical conductivity [S/m]
298.15 K	0.4 ± 0.016
318.15 K	0.733 ± 0.029

CCCC[n+]1ccn(C)c1.O=S(=O)([N-]S(=O)(=O)C(F)(F)F)C(F)(F)F + O=C1CCCO1
100 kPa, x2 = 0
Conditions	electrical conductivity [S/m]	viscosity [mPa·s]
298.15 K	0.4 ± 0.012	50 ± 1
303.15 K	0.472 ± 0.014	41.24 ± 0.87

CC[n+]1ccn(C)c1.O=S(=O)([O-])O + O=C1O[C@H]([C@@H](O)CO)C(O)=C1O + O
viscosity [mPa·s], 100 kPa
Conditions	293.15 K	298.15 K	303.15 K	308.15 K	313.15 K	318.15 K
x2 = 0, x1 = 0.0009002	1.05 ± 0.1	0.94 ± 0.1	0.84 ± 0.1	0.76 ± 0.1	0.69 ± 0.1	0.65 ± 0.1
x2 = 0, x1 = 0.001799	1.07 ± 0.1	0.95 ± 0.1	0.85 ± 0.1	0.77 ± 0.1	0.7 ± 0.1	0.64 ± 0.1
x2 = 0, x1 = 0.002696	1.08 ± 0.1	0.96 ± 0.1	0.86 ± 0.1	0.78 ± 0.1	0.71 ± 0.1	0.64 ± 0.1
x2 = 0.0002713, x1 = 0.0008999	1.05 ± 0.1	0.95 ± 0.1	0.84 ± 0.1	0.76 ± 0.1	0.7 ± 0.1	0.65 ± 0.1
x2 = 0.0002768, x1 = 0.001798	1.08 ± 0.1	0.96 ± 0.1	0.86 ± 0.1	0.78 ± 0.1	0.71 ± 0.1	0.65 ± 0.1
x2 = 0.000277, x1 = 0.002695	1.09 ± 0.1	0.97 ± 0.1	0.87 ± 0.1	0.78 ± 0.1	0.72 ± 0.1	0.65 ± 0.1
x2 = 0.0005469, x1 = 0.0008997	1.06 ± 0.1	0.96 ± 0.1	0.85 ± 0.1	0.77 ± 0.1	0.71 ± 0.1	0.66 ± 0.1
x2 = 0.0005489, x1 = 0.001798	1.08 ± 0.1	0.96 ± 0.1	0.87 ± 0.1	0.78 ± 0.1	0.72 ± 0.1	0.66 ± 0.1
x2 = 0.0005544, x1 = 0.002694	1.1 ± 0.1	0.98 ± 0.1	0.88 ± 0.1	0.79 ± 0.1	0.72 ± 0.1	0.66 ± 0.1
x2 = 0.0008183, x1 = 0.0008994	1.07 ± 0.1	0.96 ± 0.1	0.85 ± 0.1	0.78 ± 0.1	0.71 ± 0.1	0.67 ± 0.1
x2 = 0.0008262, x1 = 0.001797	1.09 ± 0.1	0.97 ± 0.1	0.87 ± 0.1	0.79 ± 0.1	0.72 ± 0.1	0.66 ± 0.1
x2 = 0.000834, x1 = 0.002693	1.1 ± 0.1	0.98 ± 0.1	0.88 ± 0.1	0.8 ± 0.1	0.73 ± 0.1	0.67 ± 0.1
x2 = 0.00109, x1 = 0.0008992	1.07 ± 0.1	0.97 ± 0.1	0.86 ± 0.1	0.78 ± 0.1	0.72 ± 0.1	0.67 ± 0.1
x2 = 0.0011, x1 = 0.001797	1.09 ± 0.1	0.97 ± 0.1	0.88 ± 0.1	0.8 ± 0.1	0.73 ± 0.1	0.67 ± 0.1
x2 = 0.00111, x1 = 0.002693	1.11 ± 0.1	0.99 ± 0.1	0.89 ± 0.1	0.8 ± 0.1	0.73 ± 0.1	0.67 ± 0.1
x2 = 0.001362, x1 = 0.000899	1.08 ± 0.1	0.97 ± 0.1	0.86 ± 0.1	0.79 ± 0.1	0.72 ± 0.1	0.68 ± 0.1
x2 = 0.001374, x1 = 0.001796	1.1 ± 0.1	0.98 ± 0.1	0.88 ± 0.1	0.8 ± 0.1	0.73 ± 0.1	0.67 ± 0.1
x2 = 0.00139, x1 = 0.002692	1.11 ± 0.1	1 ± 0.1	0.89 ± 0.1	0.81 ± 0.1	0.74 ± 0.1	0.68 ± 0.1
x2 = 0.001633, x1 = 0.0008987	1.09 ± 0.1	0.98 ± 0.1	0.87 ± 0.1	0.79 ± 0.1	0.73 ± 0.1	0.68 ± 0.1
x2 = 0.001648, x1 = 0.001796	1.11 ± 0.1	0.98 ± 0.1	0.89 ± 0.1	0.81 ± 0.1	0.74 ± 0.1	0.68 ± 0.1
x2 = 0.001666, x1 = 0.002691	1.12 ± 0.1	1 ± 0.1	0.9 ± 0.1	0.81 ± 0.1	0.75 ± 0.1	0.68 ± 0.1
x2 = 0.001906, x1 = 0.0008985	1.09 ± 0.1	0.98 ± 0.1	0.88 ± 0.1	0.8 ± 0.1	0.73 ± 0.1	0.69 ± 0.1
x2 = 0.001923, x1 = 0.001795	1.11 ± 0.1	0.99 ± 0.1	0.9 ± 0.1	0.81 ± 0.1	0.74 ± 0.1	0.68 ± 0.1
x2 = 0.001942, x1 = 0.00269	1.12 ± 0.1	1.01 ± 0.1	0.9 ± 0.1	0.82 ± 0.1	0.75 ± 0.1	0.69 ± 0.1

CC[n+]1ccn(C)c1.O=S(=O)([O-])O + O=C([O-])CC(O)(CC(=O)[O-])C(=O)[O-].[Li+].[Li+].[Li+] + O
viscosity [mPa·s], 101 kPa
Conditions	293.15 K	298.15 K	303.15 K	308.15 K	313.15 K
x2 = 0, x1 = 0.0006645	1.023 ± 0.016	0.93 ± 0.017	0.823 ± 0.015	0.75 ± 0.015	0.674 ± 0.013
x2 = 0, x1 = 0.0007293	1.036 ± 0.017	0.943 ± 0.018	0.825 ± 0.015	0.749 ± 0.014	0.689 ± 0.015
x2 = 0, x1 = 0.0009254	1.064 ± 0.021	0.943 ± 0.016	0.844 ± 0.019	0.763 ± 0.016	0.683 ± 0.014
